Assay results published in publication PMC4977651, “Molecular features of biguanides required for targeting of mitochondrial respiratory complex I and activation of AMP-kinase” (BMC Biology, 2016).
Several values for one entry are separate records, joined by “and”; a condition that tells them apart may be missing. Equal values may be shown once.

Assays:
mouse heart mitochondria = assay: ADP-stimulated rotenone-sensitive OCR in isolated mouse heart mitochondria; format: biochemical; parameters: rotenone sensitive OCR after ADP stimulation, individual replicates / rotenone sensitive OCR after ADP stimulation, average / rotenone sensitive OCR after 15 mins, average: unit not given here; details: for rotenone sensitive OCR after ADP stimulation, % of control, average / rotenone sensitive OCR after ADP stimulation, average: average of replicates; for rotenone sensitive OCR after ADP stimulation, % of control, individual replicates: replicate 1-11; for rotenone sensitive OCR after ADP stimulation, individual replicates: replicate 1-12
Experimental: (§1) Complex I and mitochondrial membranes were prepared from Bos taurus (bovine) heart. Intact mitochondria were isolated from rat liver and mouse heart and liver. Membranes were prepared from mouse heart mitochondria by 5 s bursts of sonication at 4 °C and collected by centrifugation (75,000 × g, 1 h).
Isolated mitochondria were monitored using a Seahorse XF96 extracellular flux analyzer at 32 °C. Mouse heart mitochondria, and mouse and rat liver mitochondria were plated into XF96 plates at 4 and 16–20 μg per well, respectively, in 220 mM mannitol, 70 mM sucrose, 10 mM KH2PO4, 5 mM MgCl2, 1 mM EGTA, 0.2 % fatty acid-free BSA, and 2 mM HEPES (pH 7.4 at 37 °C) with 10 mM glutamate and 10 mM malate and adhered by centrifugation (2000 × g, 20 min, 4 °C). The medium was supplemented with a further 5 mM glutamate and 5 mM malate and the mitochondria incubated for 15 min. Then two baseline readings were taken before the biguanides were added at IC50/5. […] Rotenone (2 μM) was added at the end of the experiment. Data from wells with failed port injections were excluded from the analyses. The RCR values (state III versus state IV respiration) were 3.4, 4.8, and 4.6 for mouse heart, rat liver, and mouse liver, respectively.

permeabilized MDBK cells = assay: ADP-stimulated rotenone-sensitive OCR in permeabilized MDBK cells; format: cell-based, Bos taurus; parameters: rotenone sensitive OCR after ADP stimulation, average / rotenone sensitive OCR after ADP stimulation: unit not given here; details: MDBK permeabilised cells; for rotenone sensitive OCR after ADP stimulation, % of control, average / rotenone sensitive OCR after ADP stimulation, average: average of replicates; for rotenone sensitive OCR after ADP stimulation / rotenone sensitive OCR after ADP stimulation, % of control: individual replicates
Experimental: For permeabilized cell experiments, cells were seeded into XF96 plates at 0.9–1.1 × 10^4 per well and incubated for 48 h at 37 °C in 5 % CO2. Then, the growth medium was exchanged for assay buffer containing 3 nM plasma membrane permeabilizer ‘PMP’ (Seahorse Biosciences Inc.), 10 mM glutamate, 10 mM malate, 220 mM mannitol, 70 mM sucrose, 10 mM KH2PO4, 5 mM MgCl2, 1 mM EGTA, 0.2 % fatty acid-free bovine serum albumin (BSA), and 2 mM HEPES (pH 7.4 at 37 °C). […] The biguanides were allowed to accumulate for 30 min, then respiration was […] by the addition of 4 mM ADP. Rotenone was added (2 μM) at the end of the experiment.
Rotenone-sensitive OCRs were calculated by subtracting the rotenone-insensitive rates (determined at the end of the experiment). OCRs were normalized by dividing by the OCR recorded immediately prior to the addition of biguanide. For rate of uptake calculations, the OCRs at time points after biguanide addition were divided by the OCRs at the same time points in control experiments. Data from wells with failed port injections were excluded from the analyses. The respiratory control ratio (RCR) values (state III versus state IV respiration) were ~11 and ~6 for permeabilized MDBK and 143B cells, respectively.

rat liver mitochondria = assay: ADP-stimulated rotenone-sensitive OCR in isolated rat liver mitochondria; format: biochemical; parameters: rotenone sensitive OCR after ADP stimulation, individual replicates / rotenone sensitive OCR after ADP stimulation, average: unit not given here; details: for rotenone sensitive OCR after ADP stimulation, % of control, average / rotenone sensitive OCR after ADP stimulation, average: average of replicates; for rotenone sensitive OCR after ADP stimulation, % of control, individual replicates / rotenone sensitive OCR after ADP stimulation, individual replicates: replicate 1-5
Experimental: as §1
(§2) Isolated mitochondria were monitored using a Seahorse XF96 extracellular flux analyzer at 32 °C. Mouse heart mitochondria, and mouse and rat liver mitochondria were plated into XF96 plates at 4 and 16–20 μg per well, respectively, in 220 mM mannitol, 70 mM sucrose, 10 mM KH2PO4, 5 mM MgCl2, 1 mM EGTA, 0.2 % fatty acid-free BSA, and 2 mM HEPES (pH 7.4 at 37 °C) with 10 mM glutamate and 10 mM malate and adhered by centrifugation (2000 × g, 20 min, 4 °C). The medium was supplemented with a further 5 mM glutamate and 5 mM malate and the mitochondria incubated for 15 min. Then two baseline readings were taken before the biguanides were added at IC50/5. Biguanides were allowed to accumulate for 15–20 min before respiration was […] by the addition of 4 mM ADP. Rotenone (2 μM) was added at the end of the experiment. Data from wells with failed port injections were excluded from the analyses. The RCR values (state III versus state IV respiration) were 3.4, 4.8, and 4.6 for mouse heart, rat liver, and mouse liver, respectively.

mouse liver mitochondria = assay: ADP-stimulated rotenone-sensitive OCR in isolated mouse liver mitochondria; format: biochemical; parameters: rotenone sensitive OCR after ADP stimulation, individual replicates / rotenone sensitive OCR after ADP stimulation, average: unit not given here; details: for rotenone sensitive OCR after ADP stimulation, % of control, average / rotenone sensitive OCR after ADP stimulation, average: average of replicates; for rotenone sensitive OCR after ADP stimulation, % of control, individual replicates / rotenone sensitive OCR after ADP stimulation, individual replicates: replicate 1-5
Experimental: as §1, §2

[1] = tested on: bovine mitochondrial membranes (complexes II-III-IV); assay: Succinate:O2 oxidoreduction (complexes II-III-IV, complex II assay) by bovine mitochondrial membranes; format: biochemical, Bos taurus; details: biguanide concentrations set to the IC50 values for NADH:O2 on bovine membranes; control = 100.00; n = 3
Experimental: Assays were performed at 32 °C in a SpectraMax 96-well plate reader. NADH:decylubiquinone oxidoreduction by complex I at 0.5 μg mL^−1 was measured in 20 mM Tris-HCl (pH 7.2), 0.15 % soy bean asolectin (Avanti Polar Lipids), and 0.15 % 3-((3-cholamidopropyl)dimethylammonium)-1-propanesulfonate (CHAPS, Merck Chemicals Ltd), with 200 μM decylubiquinone and 200 μM NADH, and monitored using ε340–380(NADH) = 4.81 mM^−1 cm^−1 [23]. Catalysis was initiated by addition of NADH and maximal rates determined by linear regression. NADH:O2 oxidoreduction by membranes was measured similarly but using 5 μg mL^−1 membranes in 10 mM Tris-HCl (pH 7.4) and 250 mM sucrose using 200 μM NADH and supplemented with 0.15 mM horse heart cytochrome c (Sigma-Aldrich Ltd.). Succinate:O2 oxidoreduction was measured using 40 μg mL^−1 membranes in 5 mM succinate in 10 mM Tris-HCl (pH 7.4) as described previously. Control experiments included NaCl (to match the ionic strength) or DMSO, as appropriate.

[2] = Octanol/PBS partition coefficient, shake-flask method; format: physicochemical; details: 32 °C, pH 7.4, n = 3
Experimental: Octanol/PBS partition coefficients were measured by the shake-flask method at 32 °C, pH 7.4.

Row | SMILES | rotenone sensitive OCR after ADP stimulation, % of control, average (mouse heart mitochondria) | rotenone sensitive OCR after ADP stimulation, average (mouse heart mitochondria) | rotenone sensitive OCR after ADP stimulation, % of control, individual replicates (mouse heart mitochondria) | rotenone sensitive OCR after ADP stimulation, individual replicates (mouse heart mitochondria) | rotenone sensitive OCR after ADP stimulation, % of control, average (permeabilized MDBK cells) | rotenone sensitive OCR after ADP stimulation, average (permeabilized MDBK cells) | rotenone sensitive OCR after ADP stimulation, % of control, average (permeabilized MDBK cells; biguanide at IC50/5) | rotenone sensitive OCR after ADP stimulation, average (permeabilized MDBK cells; biguanide at IC50/5) | rotenone sensitive OCR after ADP stimulation (permeabilized MDBK cells; biguanide at IC50/5) | rotenone sensitive OCR after ADP stimulation, % of control (permeabilized MDBK cells; biguanide at IC50/5) | rotenone sensitive OCR after ADP stimulation, % of control, average (rat liver mitochondria) | rotenone sensitive OCR after ADP stimulation, average (rat liver mitochondria) | rotenone sensitive OCR after ADP stimulation, % of control, individual replicates (rat liver mitochondria) | rotenone sensitive OCR after ADP stimulation, individual replicates (rat liver mitochondria) | rotenone sensitive OCR after ADP stimulation, % of control, average (mouse liver mitochondria) | rotenone sensitive OCR after ADP stimulation, average (mouse liver mitochondria) | rotenone sensitive OCR after ADP stimulation, % of control, individual replicates (mouse liver mitochondria) | rotenone sensitive OCR after ADP stimulation, individual replicates (mouse liver mitochondria) | Complex II assay (succinate:O2 oxidoreduction), average [1] | further results
1 | NC(N)=NC(N)=NCCc1ccc(Cl)cc1 [compound 1, 2-[2-(4-chlorophenyl)ethyl]-1-(diaminomethylidene)guanidine] | 42.96 % of control | 104.05 | 59.58 % of control and 56.94 % of control and 47.63 % of control and 43.78 % of control and 42.25 % of control and 48.37 % of control and 28.35 % of control and 16.80 % of control | 144.30 and 137.90 and 115.35 and 106.02 and 102.33 and 117.15 and 68.67 and 40.69 | 20.60 % of control | 58.06 | 20.60 % of control | 58.06 | 88.38 and 76.77 and 21.79 and 44.14 and 38.29 and 53.63 and 83.42 | 31.36 % of control and 27.24 % of control and 7.73 % of control and 15.66 % of control and 13.59 % of control and 19.03 % of control and 29.60 % of control | 55.19 % of control | 15.13 | 67.97 % of control and 49.70 % of control and 53.49 % of control and 49.59 % of control | 18.64 and 13.63 and 14.67 and 13.60 | 43.22 % of control | 14.99 | 45.82 % of control and 40.66 % of control and 43.16 % of control | 15.90 and 14.11 and 14.98 | 92.41 | logP [2]: 0.149
2 | [H]/N=C(/N)N/C(=N/[H])NCCc1ccccc1 [phenformin, reference compound] | 30.06 % of control | 73.69 | 34.41 % of control and 27.92 % of control and 37.45 % of control and 23.80 % of control and 31.47 % of control and 29.88 % of control and 25.27 % of control and 30.29 % of control | 84.35 and 68.44 and 91.80 and 58.33 and 77.13 and 73.26 and 61.95 and 74.26 | 14.11 % of control | 39.76 | 14.11 % of control | 39.76 | 45.64 and 68.90 and 0.07 and 37.54 and 39.83 and 25.16 and 62.96 and 38.03 | 16.19 % of control and 24.45 % of control and 0.025 % of control and 13.32 % of control and 14.13 % of control and 8.93 % of control and 22.34 % of control and 13.49 % of control | 22.17 % of control | 6.08 | 23.43 % of control and 20.89 % of control and 22.08 % of control and 22.26 % of control | 6.42 and 5.73 and 6.05 and 6.10 | 29.95 % of control | 10.39 | 29.69 % of control and 34.49 % of control and 19.77 % of control and 35.85 % of control | 10.30 and 11.97 and 6.86 and 12.44 | 95.51 | rotenone sensitive OCR after 15 mins, average (mouse heart mitochondria; ADP and phenformin added simultaneously, n = 8): 418.601; rotenone sensitive OCR after 15 mins, % control (no phenformin) (mouse heart mitochondria; ADP and phenformin added simultaneously, n = 8 with phenformin, n = 6 control): 85 ± 10 % control and 85.2397 % control; oxygen consumption, % of the control value (mouse heart mitochondria; phenformin at IC50/5 accumulated in the absence of ADP before ADP stimulation): 30%
3 | [H]/N=C(\N/C(=N/[H])Nc1ccc(Cl)cc1)NC(C)C [proguanil, reference compound] | 99.28 % of control | 240.45 | 98.46 % of control and 125.69 % of control and 95.82 % of control and 99.56 % of control and 95.47 % of control and 84.72 % of control and 105.21 % of control and 89.32 % of control | 238.46 and 304.41 and 232.07 and 241.13 and 231.22 and 205.20 and 254.80 and 216.32 | 105.17 % of control | 296.39 | 105.17 % of control | 296.39 | 272.71 and 215.77 and 253.06 and 330.67 and 409.72 | 96.77 % of control and 76.56 % of control and 89.79 % of control and 117.34 % of control and 145.38 % of control | 91.40 % of control | 25.06 | 82.64 % of control and 94.24 % of control and 97.33 % of control | 22.66 and 25.84 and 26.69 | 89.71 % of control | 31.13 | 103.28 % of control and 81.19 % of control and 80.15 % of control and 94.21 % of control | 35.84 and 28.17 and 27.81 and 32.69 | 95.35 | –
